Laboratory results from publication PMC2885440 (Journal of natural products, 2010).

Assay: Relative polarity on C12 reversed-phase HPLC
Type: physicochemical
Conditions: C12 reversed-phase HPLC (Jupiter Proteo C12), linear gradient 50–80% MeOH in 0.05% TFA in 50 min

Substance: Lys-Ala-Leu1-Leu2-Trp (lariat or depsi) [Paltolide A]
- polarity among compounds 1–6: most polar
